These results are taken from patent US20150272951A1, “COMPOUNDS FOR THE TREATMENT OF LYSOSOMAL STORAGE DISEASES” (The Hospital for Sick Children, priority 2010, published 2015).

The EC50 is the midpoint of the concentration-response curve. Read a high EC50 as weaker potency. The term IC50 denotes the concentration that inhibits the measured activity by half.

Like-named read-outs stand apart in the source and are kept apart here.

Assay [1] relates to mutant Hex A. It counts as cell-based, human. Here is the method: The cells were harvested and assayed for Hex A using a fluorescent artificial substrate, MUGS. The increase in Hex A activity relative to that of untreated cells is given, i.e. no change in activity=1;
Cells were grown in the indicated concentrations of either drug for five days. The cells were harvested and assayed for Hex A activity using a fluorescent artificial substrate, MUGS. The increase in Hex A activity relative to that of untreated cells is given, i.e. no change in activity=1.
Two of the other cultures were un-genotyped infantile Tay-Sachs disease fibroblast cell lines. […] The increase in Hex A activity relative to that of untreated cells is given, i.e., no change in activity=1. The decrease in Hex A activity at high concentrations represents cell toxicity.

In assay [2] the target is mutant Hex A (Homo sapiens, UniProt P06865+P07686). It counts as cell-based. Here is the method:
Using the graphs of FIGS. 5-7, the EC50 values for Hex A rescue were determined as well as the maximum increase and range of increase in Hex A activity. These values are tabulated in Table 2, together with the IC50 values for Hex A inhibition that were determined in Example 3.

Assay [3] deals with HexB (Homo sapiens, UniProt P07686). As to the kind of experiment: HexB inhibition (purified isozyme). It is filed as biochemical.
Chain of HexB (P07686 122-311 limits assumed): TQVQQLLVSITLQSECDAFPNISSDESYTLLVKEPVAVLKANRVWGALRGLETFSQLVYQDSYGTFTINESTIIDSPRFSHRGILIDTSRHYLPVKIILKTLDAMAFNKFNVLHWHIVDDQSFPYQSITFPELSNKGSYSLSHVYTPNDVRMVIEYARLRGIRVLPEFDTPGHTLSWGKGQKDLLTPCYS
Chain of HexB (P07686 315-556 limits assumed): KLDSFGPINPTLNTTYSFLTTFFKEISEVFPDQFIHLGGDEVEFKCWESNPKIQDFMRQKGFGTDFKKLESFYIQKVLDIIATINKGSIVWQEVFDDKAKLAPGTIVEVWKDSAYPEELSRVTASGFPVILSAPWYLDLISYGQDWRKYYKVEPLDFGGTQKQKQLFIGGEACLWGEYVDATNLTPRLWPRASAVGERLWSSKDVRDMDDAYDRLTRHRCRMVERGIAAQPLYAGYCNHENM
Method: (§1) Experiments were performed using 1.6 mM 4-methylumbelliferone-b-N-Acetylglucosamine substrate.
The target of assay [4] is T1, HexA wt (Homo sapiens, UniProt P06865+P07686).
T1 construct: endogenous in cells; host or cells: normal fibroblasts (HexA isozyme enriched from them)
T1 sequence (P06865 89-529): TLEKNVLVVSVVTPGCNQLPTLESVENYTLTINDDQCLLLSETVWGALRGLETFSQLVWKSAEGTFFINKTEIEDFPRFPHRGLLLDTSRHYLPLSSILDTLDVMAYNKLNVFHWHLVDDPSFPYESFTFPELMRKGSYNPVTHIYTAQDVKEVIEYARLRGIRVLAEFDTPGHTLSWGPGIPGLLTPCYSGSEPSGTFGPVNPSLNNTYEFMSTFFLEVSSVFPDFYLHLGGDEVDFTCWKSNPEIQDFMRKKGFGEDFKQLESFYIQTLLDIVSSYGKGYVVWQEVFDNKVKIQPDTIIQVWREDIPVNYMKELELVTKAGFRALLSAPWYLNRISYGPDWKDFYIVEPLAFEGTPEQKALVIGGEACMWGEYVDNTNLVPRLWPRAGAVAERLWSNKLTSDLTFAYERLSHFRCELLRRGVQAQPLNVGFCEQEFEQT
T1 sequence (P07686 122-311 limits assumed): as the sequence (P07686 122-311 limits assumed) above
T1 sequence (P07686 315-556 limits assumed): as the sequence (P07686 315-556 limits assumed) above
The assay is described as follows: Inhibition of HexA enriched from normal fibroblasts. It counts as biochemical. Conditions: pH 4.5.
Method: as §1

In assay [5] the target is T2, purified recombinant human DHFR (Homo sapiens, UniProt P00374).
T2 sequence (P00374 1-187): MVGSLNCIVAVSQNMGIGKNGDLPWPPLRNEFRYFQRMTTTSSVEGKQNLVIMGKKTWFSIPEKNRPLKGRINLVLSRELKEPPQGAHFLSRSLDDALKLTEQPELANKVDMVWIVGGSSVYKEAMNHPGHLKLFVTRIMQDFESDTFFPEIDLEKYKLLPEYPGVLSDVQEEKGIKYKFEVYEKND
The assay is described as follows: DHFR inhibition. It counts as biochemical. Conditions: FIG. 13B.

The subject of assay [6] is lysosomal HexA. The assay is described as follows: Intracellular hydrolysis of fluorescent GM2 ganglioside derivative in patient cells. The conditions noted are these: PYRdCl 11 μg/ml vs PYR 33 μg/ml, 10 days. It counts as cell-based, human. Here is the method: Prior to evaluation of the GM2 hydrolytic activity of lysosomal HexA, cells were treated with Conduritol b-epoxide (Glucocerebrosidase inhibitor) to limit hydrolysis beyond (GlcCer) loaded with a fluorescent derivative of GM2 ganglioside for 8 hrs. Neutral glycolipids and gangliosides were separated by Folch extraction of the treated cells. Gangliosides and glycolipids were resolved by High Performance Thin Layer Chromatography and visualized by Fluorescence Imaging (Storm Imager, Molecular Devices).

The test system of assay [7] is malaria. The conditions noted are these: cited from earlier work.
For assay [8], the target named is Hex A (Homo sapiens, UniProt P06865+P07686). As to the kind of experiment: Hex A inhibition (IC50 from dose response curves of Hex A residual activity).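 Also: remaining Hex A enzyme activity recorded across rising inhibitor doses, with dose response curves run at pH 6.5 and again at pH 4.5.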
Chain of Hex A (P06865 89-529): as the sequence (P06865 89-529) above
Chain of Hex A (P07686 122-311 limits assumed): as the sequence (P07686 122-311 limits assumed) above
Chain of Hex A (P07686 315-556 limits assumed): as the sequence (P07686 315-556 limits assumed) above
Method: The NINDS library was screened for compounds having Hex A inhibitory activity.
as §1

Take `CCc1nc(N)nc(N)c1-c1ccccc1` [ksh3-10]: in assay [1] (33.33 μg/ml, five days, relative to untreated cells (FIG. 5)), the “fold increase in Hex A activity” value turned out to be 7 fold. Also, the “Hex A rescue response compared with PYR” value in assay [1] (all Tay-Sachs cell lines tested (FIG. 5)) was “as good or a better than PYR”. Moreover, the EC50 in assay [2] (Hex A rescue, determined from graphs of FIGS. 5-7) is 38.4 µM. Besides, in assay [2] (concentration of 100 μM (FIGS. 6 and 7)), the “fold increase in Hex A activity (rescue of mutant Hex A)” value was approximately 3 fold. Further, the “Max Increase” value in assay [2] (maximum increase in Hex A activity relative to untreated cells (=1)) is 2.6. In assay [2] (range of increase in Hex A activity), the “Range of Increase” value is given as 4. For the same compound, the half-maximal inhibitory concentration (IC50) is 38 µM in assay [3] (pH 4.5, 1.6 mM substrate, read-out: IC50 HexB pH 4.5); 15 µM in assay [3] (pH 7, read-out: IC50 HexB pH 7); 27 µM in assay [4]; 0.2 µM in assay [5]; 32 ± 1 µM in assay [8] (read-out: IC50 (μM ± Err), Hex A inhibition, values determined in Example 3, pH not given); 11 µM in assay [8] (read-out: IC50 HexA pH 7, purified HexA, pH 7). In assay [8] (without error, pH not stated), this compound had a concentration for half-maximal inhibition (IC50) of 32 µM. Further, the “intracellular hydrolysis of fluorescent GM2 ganglioside derivative” value in assay [6] is listed as “greater intracellular hydrolysis”. Further, in assay [7], the “activity against malaria relative to PYR” value is recorded as “inferior activity against malaria relative to PYR”.
